The values that follow are results of earlier work, collected in patent US20030198685A1 (priority 2002, published 2003).

Where two headings read alike, the source gives them in different places.

In data set [1] the test system is prostate and seminal vesicle weights; levator ani muscles.
For data set [2] the following is noted: Caucasian group of hypogonadal men.
For data set [3] the following is noted: after supplementation.
For data set [4] the following is noted: 300 mg/wk for six weeks.
For data set [5] the following is noted: pharmacological doses, HIV-infected men.
Assay in data set [6]: not given
The source holds these as a separate data set.

The conditions of data set [7]: female rats, constant infusion.
The conditions of data set [8]: patients on dialysis.
For data set [9] the following is noted: nandrolone use.
Assay in data set [10]: not given
This is another data set of the same source.

A further data set deals with androgen receptor. Conditions: seminal vesicle; parent versus 5-alpha-reduced metabolite.

On to `C[C@@H]1CC2=CC(=O)CC[C@@H]2[C@H]2CC[C@]3(C)[C@@H](O)CC[C@H]3[C@@H]21` [MENT, 7α-methyl-19-nor-testosterone], for which, in data set [1] (measured by prostate and seminal vesicle weights), the “androgenic potency relative to testosterone” value is recorded as “four- to five-times”. In [1] (measured in the levator ani muscles), the “anabolic potency relative to testosterone” value is reported as “ten-times”. In addition, the “sexual interest and activity, spontaneous erection” value in [2] was “significant increases”.
As for `C[C@]12CC[C@H]3[C@@H](CCC4=C[C@@H](O)CC[C@@]43C)[C@@H]1CC[C@@H]2O` [4-androstenediol], the “urine testosterone concentration relative to 4-androstenedione” value in data set [3] is on record as 10 fold. Moreover, the “human serum testosterone levels” value (human) is on record as “elevations”.
With `CCCCCCCCCC(=O)O[C@H]1CC[C@H]2[C@@H]3CCC4=CC(=O)CC[C@@H]4[C@H]3CC[C@]12C` [nandrolone decanoate, 19-nor-testosterone decanoate], the “body circumferences with significant increases (of fifteen)” value in [4] was “shoulders and chest”. The “total weight, lean body mass, body cell mass, muscle size and strength” value in data set [5] is reported as “significant gains”.
`C[C@]12CC[C@H](O)CC1=CC[C@@H]1[C@@H]2CC[C@]2(C)C(=O)CC[C@@H]12` [DHEA, dehydro-epiandrosterone]: the results for the plasma testosterone result in [6] (50 mg dose of DHEA) and in data set [6] (200 mg dose of DHEA) were “levels similar to those observed in young women” and “slightly below the levels observed in normal men”, respectively. Also, the “increase of plasma delta 4-androstenedione” value in data set [6] (50 mg or 200 mg DHEA) is “significant and dose dependent”. Also, the “plasma estrogens, particularly estradiol” value in [6] (50 mg or 200 mg DHEA) was “significant and dose dependent increase”. In addition, the “increase of plasma dihydrotestosterone levels” value in data set [6] (both doses of DHEA) was “small”.
In the case of `C[C@]12CC[C@H]3[C@@H](CC=C4C[C@@H](O)CC[C@@]43C)[C@@H]1CC[C@@H]2O` [5-androstenediol], the “proportion of protein in the body composition” value in [7] is “increased”.
`CCCCCCC(=O)O[C@H]1CC[C@H]2[C@@H]3CCC4=CC(=O)CC[C@]4(C)[C@H]3CC[C@]12C` [TE, testosterone enanthate]: in [4], the “body circumferences with significant increases (of fifteen)” value is “shoulders”. Moreover, the “sexual interest and activity, spontaneous erection” value in data set [2] is listed as “significant increases”.
Regarding `C[C@]12CCC(=O)C=C1CC[C@@H]1[C@@H]2CC[C@]2(C)C(=O)CC[C@@H]12` [4-androstenedione], the serum testosterone result (supplementation) is on record as “elevations”.
Regarding `C[C@]12CC[C@H]3[C@@H](CCC4=CC(=O)CC[C@@H]43)[C@@H]1CC[C@@H]2O` [nandrolone, 19-nor-testosterone], in data set [8], the “lean body mass compared with placebo” value was “increased significantly”. The effect on sperm entry in data set [9] is reported as “azoospermia”. Further, the energy expenditure entry in data set [7] was “increased”. Moreover, in data set [10] (body builders), the “decrease in HDL-cholesterol” value is recorded as 25-27%. Further, the lean body mass result in data set [10] (body builders ingesting nandrolone) was “Superior increases”.
On to `C[C@]12CC[C@H]3[C@@H](CCC4=CC(=O)CC[C@@]43C)[C@@H]1CC[C@@H]2O` [testosterone], for which the “proportion of protein in the body composition” value in [7] was “increased”. Further, in the data set with androgen receptor, the “change of affinity to the androgen receptor on 5-alpha-reduction” value was “increasing by seven- to eight-fold”.
